Test results taken from patent publication EP4781993A1, “ANTIBACTERIAL COMPOSITION AND ANTIBACTERIAL DRUG” (Shenzhen China Resources Gosun Pharmaceuticals Co., Ltd., priority 2023, dated 2025).
Where a name gives a salt, the structure may show the parent alone. Read-outs that look alike come from different tables or passages of the source.

How the values were obtained:
[1] = tested on: KPC-2 producing Klebsiella pneumoniae; assay: Broth-microdilution MIC (CLSI M07-A11) against clinical isolates; assay type: cell-based; design: Drug concentration: unit: mg/L; conditions: for MIC range / MIC50 / MIC90 / Mode: 12 strains; for MIC range / MIC50 / MIC90: MIC = ceftobiprole concentration (groups A2, B2, C2, D2, E2: inhibitor alone); for Mode: mode of MIC; for Drug concentration: unit not given in Table 3; for antibacterial activity: verdict in words
From the text: (§1) As recommended by CLSI (Clinical and Laboratory Standards Institute) M07-A11 (2018 edition), the Broth-microdilution method is adopted to determine the minimum inhibitory concentration (MIC) of ceftobiprole and zidebactam against clinical isolates. It should be noted that, in the present disclosure, MIC50 refers to the minimum drug concentration that inhibits the growth of 50% of the tested bacteria, and MIC90 refers to the minimum drug concentration that inhibits the growth of 90% of the tested bacteria.
(§2) Antibacterial drug: ceftobiprole, manufacturer: Shenyang Sanjiu Pharmaceutical, content: 92.1%, batch number: YF/BALP141/000. Zidebactam, manufacturer: Target M01 company, batch number: 149661. Zidebactam, as described above, the English name is Zidebactam, and the chemical name is: (2S,5R)-7-oxo-2-(2-((R)-piperidine-3-carbonyl)hydrazine-1-carbonyl)-1,6-diazabicyclo[3.2.1]octan-6-yl hydrogen sulfate.
(§3) Tested strains: a total of 24 genotypic strains producing KPC or OXA β-lactamase. Specifically, the tested strains include 24 strains of Klebsiella pneumoniae, including 12 KPC-2 producing strains and 12 OXA-232 producing strains.
(§4) Quality control strains: Escherichia coli ATCC 25922, (KPC-2 producing) Klebsiella pneumoniae ATCC BAA-1705, and (NDM-1 producing) Klebsiella pneumoniae ATCC BAA-2146.
(§5) Medium: cation-adjusted Mueller-Hinton broth (CAMHB), a product of BBL Company, USA.
(§6) Inoculum size: Pure isolated colonies were adjusted with normal saline to 0.5 McFarland turbidity. After appropriate dilution, the suspension was added to the wells of a 96-well U-bottom microplate (containing 50 µL antibacterial drug solution). The inoculum size was 5 × 10^5 CFU/mL.
(§7) Culture conditions: air environment, 35°C ± 2°C, 16 to 20 hours.
(§8) Preparation of Antibacterial Drug Solution : Ceftobiprole and zidebactam were taken separately, dissolution and dilution were performed according to the antibacterial drug reference to the CLSI standards and the drug package insert, A1 to A6, a total of 6 groups of antibacterial drug solutions, were prepared, among which, group A1 was the control group containing solely the single agent ceftobiprole, and group A2 was the control group containing solely the single agent zidebactam. Different antibacterial drug solutions with ceftobiprole concentrations ranging from 128 mg/L to 0.06 mg/L were respectively included in groups A1 and A3 to A6, and different antibacterial drug solutions with zidebactam concentrations ranging from 128 mg/L to 0.06 mg/L were included in group A2. The specific concentrations within the range of 128 mg/L to 0.06 mg/L in groups A1 to A6 were respectively 128 mg/L, 64 mg/L, 32 mg/L, 16 mg/L, 8 mg/L, 4 mg/L, 2 mg/L, 1 mg/L, 0.5 mg/L, 0.25 mg/L, 0.125 mg/L, or 0.06 mg/L, respectively. Table 1. Concentrations of ceftobiprole/zidebactam contained in the antibacterial drug solutions of groups A1 to A6
(§9) Experimental results: Currently, there are no established CLSI or EUCAST breakpoints for ceftobiprole/β-lactamase inhibitor. Therefore, the antibacterial activity of ceftobiprole/β-lactamase inhibitor is evaluated in accordance with the standards for ceftobiprole. WHONET 5.6 software is used to perform statistical analysis on the results of antibacterial susceptibility test. The fractional inhibitory concentration index (FIC) for the combination of ceftobiprole and zidebactam is calculated according to Equation (1). FIC index = (MIC of drug A in combination)/(MIC of drug A alone) + (MIC of drug B in combination)/(MIC of drug B alone) [formula]
(§10) In Equation (1), drug A is ceftobiprole, and drug B is zidebactam. […] Table 2. In vitro antibacterial activity of ceftobiprole/zidebactam against the tested bacteria in Example 1 […]

[2] = tested on: OXA-232 producing Klebsiella pneumoniae; assay: as above; assay type: cell-based; design: Drug concentration: unit: mg/L; conditions: for MIC range / MIC50 / MIC90 / Mode: 12 strains; for MIC range / MIC50 / MIC90: MIC = ceftobiprole concentration (groups A2, B2, C2, D2, E2: inhibitor alone); for MIC50 / MIC90: Klebsiella pneumoniae; for Mode: mode of MIC; for Drug concentration: unit not given in Table 3; for antibacterial activity: verdict in words
From the text: as §1, §2, §3, §4, §5, §6, §7, §8, §9, §10

[3] = Klebsiella pneumoniae, read-out: MIC50
[4] = Klebsiella pneumoniae, read-out: MIC90
[5] = strain 20-W4-001 (kpn, OXA-232)
[6] = strain 20-W4-002 (kpn, OXA-232)
[7] = strain 20-W4-003 (kpn, OXA-232)
[8] = strain 20-W4-004 (kpn, OXA-232)
[9] = strain 20-W4-005 (kpn, OXA-232)
[10] = strain 20-W4-007 (kpn, OXA-232)
[11] = strain 20-W4-008 (kpn, OXA-232)
[12] = strain 20-W4-009 (kpn, OXA-232)
[13] = strain 20-W4-010 (kpn, OXA-232)
[14] = strain 20-W4-011 (kpn, OXA-232)
[15] = strain 20-W4-012 (kpn, OXA-232)
[16] = strain 20-W4-013 (kpn, OXA-232)

Nc1nc(/C(=N/O)C(=O)N[C@@H]2C(=O)N3C(C(=O)O)=C(/C=C4\CCN([C@@H]5CCNC5)C4=O)CS[C@H]23)ns1 [Group A1, (6R,7R)-7-((Z)-2-(5-amino-1,2,4-thiadiazol-3-yl)-2-(hydroxyimino)acetamido)-8-oxo-3-((E)-((R)-2-oxo-[1,3'-bipyrrolidin]-3-ylidene)methyl)-5-thia-1-azabicyclo[4.2.0]oct-2-ene-2-carboxylic acid]
MIC range [1]: >128 mg/L
MIC50 ([1]; listed as Group Al): >128 mg/L
MIC90 ([1]; listed as Group Al): >128 mg/L
MIC50 [1, 3]: ≥ 128 mg/L
MIC90 [1, 4]: ≥ 128 mg/L
Cumulative inhibition rate (%) ([1]; MIC >128 mg/L): 100%
Cumulative number of strains ([1]; MIC >128 mg/L): 12
Number of strains ([1]; MIC >128 mg/L): 12
Mode [1]: >128 mg/L
Drug concentration ([1]; strain 18-W09-043 (kpn, KPC-2)): >128
Drug concentration ([1]; strain 18-W09-045 (kpn, KPC-2)): >128
Drug concentration ([1]; strain 18-W09-046 (kpn, KPC-2)): >128
Drug concentration ([1]; strain 18-W09-047 (kpn, KPC-2)): >128
Drug concentration ([1]; strain 18-W09-049 (kpn, KPC-2)): >128
Drug concentration ([1]; strain 18-W09-050 (kpn, KPC-2)): >128
Drug concentration ([1]; strain 18-W09-051 (kpn, KPC-2)): >128
Drug concentration ([1]; strain 18-W13-043 (kpn, KPC-2)): >128
Drug concentration ([1]; strain 18-W13-044 (kpn, KPC-2)): >128
Drug concentration ([1]; strain 18-W13-045 (kpn, KPC-2)): >128
Drug concentration ([1]; strain 18-W13-046 (kpn, KPC-2)): >128
Drug concentration ([1]; strain 18-W13-047 (kpn, KPC-2)): >128
antibacterial activity [1]: no antibacterial activity
MIC range [2]: >128 mg/L
MIC50 [2]: ≥ 128 mg/L
MIC90 [2]: ≥ 128 mg/L
Cumulative inhibition rate (%) ([2]; MIC >128 mg/L): 100%
Cumulative number of strains ([2]; MIC >128 mg/L): 12
Number of strains ([2]; MIC >128 mg/L): 12
Mode [2]: >128 mg/L
Drug concentration [2, 5]: >128
Drug concentration [2, 6]: >128
Drug concentration [2, 7]: >128
Drug concentration [2, 8]: >128
Drug concentration [2, 9]: >128
Drug concentration [2, 10]: >128
Drug concentration [2, 11]: >128
Drug concentration [2, 12]: >128
Drug concentration [2, 13]: >128
Drug concentration [2, 14]: >128
Drug concentration [2, 15]: >128
Drug concentration [2, 16]: >128
antibacterial activity [2]: no antibacterial activity

O=C(NC1CCNCC1)[C@@H]1CC[C@@H]2CN1C(=O)N2OS(=O)(=O)O [Group C2, (1R,2S,5R)-7-oxo-2-(piperidin-4-ylcarbamoyl)-1,6-diazabicyclo[3.2.1]octan-6-yl hydrogen sulfate]
MIC50 [1, 3]: > 128 mg/L
MIC90 [1, 4]: > 128 mg/L
Cumulative inhibition rate (%) ([1]; MIC 128 mg/L): 25%
Cumulative number of strains ([1]; MIC 128 mg/L): 3
Number of strains ([1]; MIC 128 mg/L): 3
Cumulative inhibition rate (%) ([1]; MIC >128 mg/L): 100%
Cumulative number of strains ([1]; MIC >128 mg/L): 12
Number of strains ([1]; MIC >128 mg/L): 9
Mode [1]: >128 mg/L
antibacterial activity [1]: no antibacterial activity
MIC50 [2]: > 128 mg/L
MIC90 [2]: > 128 mg/L
Cumulative inhibition rate (%) ([2]; MIC 128 mg/L): 41.7%
Cumulative number of strains ([2]; MIC 128 mg/L): 5
Number of strains ([2]; MIC 128 mg/L): 5
Cumulative inhibition rate (%) ([2]; MIC >128 mg/L): 100%
Cumulative number of strains ([2]; MIC >128 mg/L): 12
Number of strains ([2]; MIC >128 mg/L): 7
Mode [2]: >128 mg/L
antibacterial activity [2]: no antibacterial activity

O=C(NNC(=O)[C@@H]1CC[C@@H]2CN1C(=O)N2OS(=O)(=O)O)[C@@H]1CCCNC1 [Group A2, (2S,5R)-7-oxo-2-(2-((R)-piperidine-3-carbonyl)hydrazine-1-carbonyl)-1,6-diazabicyclo[3.2.1]octan-6-yl hydrogen sulfate]
MIC50 [1, 3]: > 128 mg/L
MIC90 [1, 4]: > 128 mg/L
Cumulative inhibition rate (%) ([1]; MIC 1 mg/L): 8.3%
Cumulative number of strains ([1]; MIC 1 mg/L): 1
Number of strains ([1]; MIC 1 mg/L): 1
Cumulative inhibition rate (%) ([1]; MIC 128 mg/L): 41.7%
Cumulative number of strains ([1]; MIC 128 mg/L): 5
Number of strains ([1]; MIC 128 mg/L): 4
Cumulative inhibition rate (%) ([1]; MIC >128 mg/L): 100%
Cumulative number of strains ([1]; MIC >128 mg/L): 12
Number of strains ([1]; MIC >128 mg/L): 7
Mode [1]: >128 mg/L
Drug concentration ([1]; strain 18-W09-043 (kpn, KPC-2)): >128
Drug concentration ([1]; strain 18-W09-045 (kpn, KPC-2)): >128
Drug concentration ([1]; strain 18-W09-046 (kpn, KPC-2)): 128
Drug concentration ([1]; strain 18-W09-047 (kpn, KPC-2)): 128
Drug concentration ([1]; strain 18-W09-049 (kpn, KPC-2)): >128
Drug concentration ([1]; strain 18-W09-050 (kpn, KPC-2)): 128
Drug concentration ([1]; strain 18-W09-051 (kpn, KPC-2)): >128
Drug concentration ([1]; strain 18-W13-043 (kpn, KPC-2)): >128
Drug concentration ([1]; strain 18-W13-044 (kpn, KPC-2)): >128
Drug concentration ([1]; strain 18-W13-045 (kpn, KPC-2)): 128
Drug concentration ([1]; strain 18-W13-046 (kpn, KPC-2)): >128
Drug concentration ([1]; strain 18-W13-047 (kpn, KPC-2)): 1
MIC50 [2]: 64 mg/L
MIC90 [2]: > 128 mg/L
Cumulative inhibition rate (%) ([2]; MIC 1 mg/L): 8.3%
Cumulative number of strains ([2]; MIC 1 mg/L): 1
Number of strains ([2]; MIC 1 mg/L): 1
Cumulative inhibition rate (%) ([2]; MIC 2 mg/L): 16.7%
Cumulative number of strains ([2]; MIC 2 mg/L): 2
Number of strains ([2]; MIC 2 mg/L): 1
Cumulative inhibition rate (%) ([2]; MIC 4 mg/L): 33.3%
Cumulative number of strains ([2]; MIC 4 mg/L): 4
Number of strains ([2]; MIC 4 mg/L): 2
Cumulative inhibition rate (%) ([2]; MIC 8 mg/L): 41.7%
Cumulative number of strains ([2]; MIC 8 mg/L): 5
Number of strains ([2]; MIC 8 mg/L): 1
Cumulative inhibition rate (%) ([2]; MIC 64 mg/L): 50%
Cumulative number of strains ([2]; MIC 64 mg/L): 6
Number of strains ([2]; MIC 64 mg/L): 1
Cumulative inhibition rate (%) ([2]; MIC 128 mg/L): 66.7%
Cumulative number of strains ([2]; MIC 128 mg/L): 8
Number of strains ([2]; MIC 128 mg/L): 2
Cumulative inhibition rate (%) ([2]; MIC >128 mg/L): 100%
Cumulative number of strains ([2]; MIC >128 mg/L): 12
Number of strains ([2]; MIC >128 mg/L): 4
Mode [2]: >128 mg/L
Drug concentration [2, 5]: >128
Drug concentration [2, 6]: >128
Drug concentration [2, 7]: 4
Drug concentration [2, 8]: >128
Drug concentration [2, 9]: 128
Drug concentration [2, 10]: 2
Drug concentration [2, 11]: 64
Drug concentration [2, 12]: 128
Drug concentration [2, 13]: 1
Drug concentration [2, 14]: 8
Drug concentration [2, 15]: >128
Drug concentration [2, 16]: 4

(3R,6S)-2-hydroxy-3-[[2-(2-thienyl)acetyl]amino]-1,2-oxaborinane-6-acetic acid [Group B2]
MIC range [1]: >128 mg/L
Cumulative inhibition rate (%) ([1]; MIC >128 mg/L): 100%
Cumulative number of strains ([1]; MIC >128 mg/L): 12
Number of strains ([1]; MIC >128 mg/L): 12
Mode [1]: >128 mg/L
antibacterial activity [1]: no antibacterial activity
MIC range [2]: >128 mg/L
Cumulative inhibition rate (%) ([2]; MIC >128 mg/L): 100%
Cumulative number of strains ([2]; MIC >128 mg/L): 12
Number of strains ([2]; MIC >128 mg/L): 12
Mode [2]: >128 mg/L
antibacterial activity [2]: no antibacterial activity
